Data from patent US20110190137A1, “METHOD TO INHIBIT ETHYLENE RESPONSES IN PLANTS” (priority 2003, published 2011).

Experiments:
[1] = system: ethylene-induced epinasty in Patio variety tomato plants; assay: Tomato epinasty test, volatile gas treatment; type: in vivo; settings: for Gas @ 10 ppm: visual rating of protection against ethylene-induced epinasty: gas 10 ppm v/v, 10 ppm ethylene, scale 0 to 10 (10 = complete protection); for Gas @ 1000 ppm: visual rating of protection against ethylene-induced epinasty: gas 1000 ppm v/v, 10 ppm ethylene after 4 h, scored 16 h later, scale 0 (no protection) to 10 (complete protection); for Gas @ 343.4 ppm: rating of protection against epinasty: gas 343.4 ppm (in cell)
Description: (§1) Objective: The test procedure is designed to determine the ability of an experimental compound to block the epinastic growth response induced by ethylene in tomato plants when the experimental compound is administered either as a volatile gas or as a component of a spray solution.
(§2) Treatment chambers are of an appropriate size for the test plants and are airtight. Each is fitted with a reusable septum to be used for injection of ethylene. Test plants are Patio variety tomato seedlings planted two plants per three inch square plastic pot.
Volatile gas treatment entails placing two pots of Patio var. tomatoes into a polystyrene 4.8 L volume treatment chamber along with one-half (upper or lower section) of a 50×9 mm plastic Petri dish containing a Gelman filter pad. The appropriate amount of experimental compound, dissolved in 1.0 ml acetone, is pipetted onto the filter pad and the chamber immediately sealed. Four hours later ethylene gas equal to 10 ppm v/v final concentration is injected into the sealed chamber. Sixteen hours later the chambers are opened in an exhaust hood, allowed to air and the plants scored visually for the degree of protection against ethylene-induced epinasty conferred by the experimental compound when compared to ethylene treated and untreated controls on a scale of 0 to 10. A rating of 10 means complete protection. A rating of 0 means no protection from the effects of ethylene. Gas treatment concentrations are volume/volume.

[2] = system: ethylene-induced epinasty in Patio variety tomato plants; assay: Tomato epinasty test, spray application treatment; type: in vivo; settings: for Spray @10 ppm: visual rating of protection against ethylene-induced epinasty: spray 10 ppm in 10% acetone/90% water, 0.05% Silwett L-77, 10 ppm ethylene, scale 0 to 10 (10 = complete protection)
Description: as §1, §2
Spray application treatment entails using a DeVilbiss atomizer to completely cover all foliage and stems of two pots of Patio var. tomato plants with the appropriate amount of experimental compound dissolved in 10% acetone/90% water with 0.05% Silwett L-77 surfactant. Plants are air-dried in a drying hood for four hours then transferred to a 4.8 L polystyrene chamber which is sealed.
Ethylene gas equal to 10 ppm v/v final concentration is injected into the sealed chamber. Sixteen hours later the chambers are opened in an exhaust hood, allowed to air and the plants scored visually for the degree of protection against ethylene-induced epinasty conferred by the experimental compound when compared to ethylene treated and untreated controls on a scale of 0 to 10. A rating of 10 means complete protection. A rating of 0 means no protection from the effects of ethylene.

## C[Si](C)(C)CCC1C=C1 [Compound 66, 2-(Trimethylsilyl)-ethylcycloprop-2-ene]
[1]
  Gas @ 10 ppm: visual rating of protection against ethylene-induced epinasty: 10
[2]
  Spray @10 ppm: visual rating of protection against ethylene-induced epinasty: 10

## CC(C)(C)OC(=O)N1CC(C(=O)OCCC2=CC2)CS1 (centres unmarked) [Compound 52]
[1]
  Gas @ 10 ppm: visual rating of protection against ethylene-induced epinasty: 0
  Gas @ 1000 ppm: visual rating of protection against ethylene-induced epinasty: 3
[2]
  Spray @10 ppm: visual rating of protection against ethylene-induced epinasty: 2
[2]; spray 1000 ppm (in cell), scale 0 to 10
  Spray @ 1000 ppm: rating of protection against epinasty: 10

## 1-((2-Carboxy-N-morpholino)ethyl)-cyclopropene [Compound 15]
[1]
  Gas @ 10 ppm: visual rating of protection against ethylene-induced epinasty: 10
[2]
  Spray @10 ppm: visual rating of protection against ethylene-induced epinasty: 0

## CCC1=C(n2nc(-c3ccc(Cl)cc3)ccc2=O)C1 [Compound 60, 1-Ethyl-2-(3-(4-chlorophenol)-pyridaz-6-on-1-yl)-cyclopropene]
[1]
  Gas @ 10 ppm: visual rating of protection against ethylene-induced epinasty: 4
  Gas @ 1000 ppm: visual rating of protection against ethylene-induced epinasty: 0
[2]
  Spray @10 ppm: visual rating of protection against ethylene-induced epinasty: 0

## CC1(COc2ccccc2)C=C1 [Compound 7, 3-Methyl-3-Phenoxymethylcycloprop-2-ene]
[1]
  Gas @ 10 ppm: visual rating of protection against ethylene-induced epinasty: 4
  Gas @ 1000 ppm: visual rating of protection against ethylene-induced epinasty: 10
[2]
  Spray @10 ppm: visual rating of protection against ethylene-induced epinasty: 2

## C1=C(CC2CCCCCC2)C1 [Compound 22]
[1]
  Gas @ 10 ppm: visual rating of protection against ethylene-induced epinasty: 9
[2]
  Spray @10 ppm: visual rating of protection against ethylene-induced epinasty: 10

## CCCCCCCCC1=CC1C(=O)O (centres unmarked) [Compound 78, 1-Octyl-3-carboxy-cyclopropene]
[1]
  Gas @ 10 ppm: visual rating of protection against ethylene-induced epinasty: 0
  Gas @ 1000 ppm: visual rating of protection against ethylene-induced epinasty: 5
[1]; gas 500 ppm, scale 0 to 10
  Gas @ 500 ppm: rating of protection against epinasty: 10
[2]
  Spray @10 ppm: visual rating of protection against ethylene-induced epinasty: 0

## Cc1ccc(SCCCCCCCCC2=CC2)cc1 [Compound 57, 1-(4-Methylphenylthiooctyl)-cyclopropene]
[1]
  Gas @ 10 ppm: visual rating of protection against ethylene-induced epinasty: 0
  Gas @ 1000 ppm: visual rating of protection against ethylene-induced epinasty: 10
[2]
  Spray @10 ppm: visual rating of protection against ethylene-induced epinasty: 2

## C1=C(CCCc2ccccc2)C1 [Compound 25]
[1]
  Gas @ 10 ppm: visual rating of protection against ethylene-induced epinasty: 10
[2]
  Spray @10 ppm: visual rating of protection against ethylene-induced epinasty: 10

## CCC1=C(COc2cccc(C(F)(F)F)c2)C1 [Compound 37, 1-(3-trifluoromethylphenoxymethyl)-2-ethylcyclopropene]
[1]
  Gas @ 10 ppm: visual rating of protection against ethylene-induced epinasty: 0
  Gas @ 1000 ppm: visual rating of protection against ethylene-induced epinasty: 2
[2]
  Spray @10 ppm: visual rating of protection against ethylene-induced epinasty: 0

## 1-(1-Methyl-2-pyrrolecarbonyloxypropyl)-cyclopropene [Compound 59]
[1]
  Gas @ 10 ppm: visual rating of protection against ethylene-induced epinasty: 3
[2]
  Spray @10 ppm: visual rating of protection against ethylene-induced epinasty: 4

## C1=C(CCCC2OCCO2)C1 [Compound 33]
[1]
  Gas @ 10 ppm: visual rating of protection against ethylene-induced epinasty: 8
[2]
  Spray @10 ppm: visual rating of protection against ethylene-induced epinasty: 0

## CC[Si](CC)(CC)CC1=CC1 [Compound 63, 1-Triethylsilylmethylcyclopropene]
[1]
  Gas @ 10 ppm: visual rating of protection against ethylene-induced epinasty: 10
[2]
  Spray @10 ppm: visual rating of protection against ethylene-induced epinasty: 10

## CS(=O)(=O)OCCC1=CC1 [Compound 68, 1-(2-Methanesulfonyloxyethyl)-cyclopropene]
[1]
  Gas @ 10 ppm: visual rating of protection against ethylene-induced epinasty: 3
  Gas @ 1000 ppm: visual rating of protection against ethylene-induced epinasty: 10
[2]
  Spray @10 ppm: visual rating of protection against ethylene-induced epinasty: 5

## C1=C(CC2CCCC2)C1 [Compound 31]
[1]
  Gas @ 10 ppm: visual rating of protection against ethylene-induced epinasty: 9
[2]
  Spray @10 ppm: visual rating of protection against ethylene-induced epinasty: 7.5

## Cc1cc(C)nc(CCC2=CC2)n1 [Compound 42]
[1]; scale 0 to 10
  Gas @ 343.4 ppm: rating of protection against epinasty: 3(@ 343.4
[2]
  Spray @10 ppm: visual rating of protection against ethylene-induced epinasty: 2

## CC1(c2ccccc2)C=C1 [Compound 6, 3-Methyl-3-phenylcyclopropene]
[1]
  Gas @ 10 ppm: visual rating of protection against ethylene-induced epinasty: 2.5
  Gas @ 1000 ppm: visual rating of protection against ethylene-induced epinasty: 7
[2]
  Spray @10 ppm: visual rating of protection against ethylene-induced epinasty: 1

## C1=C(Cc2cccs2)C1 [Compound 2, 1-(2-Thienyl)methyl-cyclopropene]
[1]
  Gas @ 10 ppm: visual rating of protection against ethylene-induced epinasty: 10
[2]
  Spray @10 ppm: visual rating of protection against ethylene-induced epinasty: 7

## CC(C)(C1=CC1)c1ccccc1 [Compound 5, 1-(α,α-dimethylbenzyl)-cyclopropene]
[1]
  Gas @ 10 ppm: visual rating of protection against ethylene-induced epinasty: 5
[2]
  Spray @10 ppm: visual rating of protection against ethylene-induced epinasty: 2

## C1=C(Cc2ccccc2)C1 [Compound 17]
[1]
  Gas @ 10 ppm: visual rating of protection against ethylene-induced epinasty: 9
[2]
  Spray @10 ppm: visual rating of protection against ethylene-induced epinasty: 2

## CC(=O)OCOC(=O)CCC1=C(Br)C1 [Compound 75]
[1]
  Gas @ 10 ppm: visual rating of protection against ethylene-induced epinasty: 10
[2]
  Spray @10 ppm: visual rating of protection against ethylene-induced epinasty: 0

## O=C(OCCC1=CC1)c1ccc(-n2cccc2)cc1 [Compound 62]
[1]
  Gas @ 10 ppm: visual rating of protection against ethylene-induced epinasty: 0
[1]; gas 509 ppm (in cell), scale 0 to 10
  Gas @ 509 ppm: rating of protection against epinasty: 10(@509
[2]
  Spray @10 ppm: visual rating of protection against ethylene-induced epinasty: 0

## O=C(OCCC1=CC1)c1cc2ccccc2o1 [Compound 49]
[1]
  Gas @ 10 ppm: visual rating of protection against ethylene-induced epinasty: 0
[1]; scale 0 to 10
  Gas @ 343.4 ppm: rating of protection against epinasty: 9(@343.4
[2]
  Spray @10 ppm: visual rating of protection against ethylene-induced epinasty: 0

## Cc1ccc(C(=O)OCCCCC2=CC2)cc1 [Compound 44, 1-(4-Methylphenylcarbonyloxybutyl)-cyclopropene]
[1]
  Gas @ 10 ppm: visual rating of protection against ethylene-induced epinasty: 0
  Gas @ 1000 ppm: visual rating of protection against ethylene-induced epinasty: 7
[2]
  Spray @10 ppm: visual rating of protection against ethylene-induced epinasty: 0

## Cc1cc(C)c(CC2=CC2)c(C)c1 [Compound 30]
[1]
  Gas @ 10 ppm: visual rating of protection against ethylene-induced epinasty: 3
  Gas @ 1000 ppm: visual rating of protection against ethylene-induced epinasty: 8
[2]
  Spray @10 ppm: visual rating of protection against ethylene-induced epinasty: 0

## COc1cccc(C(O)C2=C(C)C2)c1 (centres unmarked) [Compound 39, 1-Methyl-2-(hydroxy(3-methoxyphenyl)methyl)cyclopropene]
[1]
  Gas @ 10 ppm: visual rating of protection against ethylene-induced epinasty: 2
  Gas @ 1000 ppm: visual rating of protection against ethylene-induced epinasty: 10
[2]
  Spray @10 ppm: visual rating of protection against ethylene-induced epinasty: 0

## Clc1ccc(CCC2=CC2)cc1 [Compound 28]
[1]
  Gas @ 10 ppm: visual rating of protection against ethylene-induced epinasty: 9.5
[2]
  Spray @10 ppm: visual rating of protection against ethylene-induced epinasty: 8

## Clc1ccc(CC2=CC2)cc1 [Compound 1, 1-Chloro-4-cycloprop-1-enylmethyl-benzene]
[1]
  Gas @ 10 ppm: visual rating of protection against ethylene-induced epinasty: 10
[2]
  Spray @10 ppm: visual rating of protection against ethylene-induced epinasty: 10

## O=C(OCCCC1=CC1)c1cnccn1 [Compound 61]
[1]
  Gas @ 10 ppm: visual rating of protection against ethylene-induced epinasty: 0
[1]; gas 438 ppm (in cell), scale 0 to 10
  Gas @ 438 ppm: rating of protection against epinasty: 10(@438
[2]
  Spray @10 ppm: visual rating of protection against ethylene-induced epinasty: 0

## ClC1=C(c2ccccc2)C1(Cl)Cl [Compound 41, 1-Phenyl-2,3,3-trichlorocyclopropene]
[1]
  Gas @ 10 ppm: visual rating of protection against ethylene-induced epinasty: 0
  Gas @ 1000 ppm: visual rating of protection against ethylene-induced epinasty: 2
[2]
  Spray @10 ppm: visual rating of protection against ethylene-induced epinasty: 0

## CC1(CCc2ccccc2)C=C1 [Compound 19]
[1]
  Gas @ 10 ppm: visual rating of protection against ethylene-induced epinasty: 2
  Gas @ 1000 ppm: visual rating of protection against ethylene-induced epinasty: 7.5
[2]
  Spray @10 ppm: visual rating of protection against ethylene-induced epinasty: 2

## C1=C(CCC2CCCCC2)C1 [Compound 21]
[1]
  Gas @ 10 ppm: visual rating of protection against ethylene-induced epinasty: 10
[2]
  Spray @10 ppm: visual rating of protection against ethylene-induced epinasty: 10

## CCCCCCCCC1=C([Si](C)(C)C)C1 [Compound 67, 2-Octyl-1-trimethylsilylcyclopropene]
[1]
  Gas @ 10 ppm: visual rating of protection against ethylene-induced epinasty: 6
[2]
  Spray @10 ppm: visual rating of protection against ethylene-induced epinasty: 3

## C1=C(CCCCCCCn2cccn2)C1 [Compound 32]
[1]
  Gas @ 10 ppm: visual rating of protection against ethylene-induced epinasty: 3
  Gas @ 1000 ppm: visual rating of protection against ethylene-induced epinasty: 10
[2]
  Spray @10 ppm: visual rating of protection against ethylene-induced epinasty: 10

## CCOP(=S)(OCC)SCC1=C(CC)C1 [Compound 84, 1-(Diethoxy-thiophosphorylthiomethyl)-2-ethylcyclopropene]
[1]
  Gas @ 10 ppm: visual rating of protection against ethylene-induced epinasty: 0
  Gas @ 1000 ppm: visual rating of protection against ethylene-induced epinasty: 10
[2]
  Spray @10 ppm: visual rating of protection against ethylene-induced epinasty: 0

## O=C(OCCC1=CC1)c1ccoc1 [Compound 48]
[1]
  Gas @ 10 ppm: visual rating of protection against ethylene-induced epinasty: 10

## CC1=C([Si](C)(C)C)C1(C)C [Compound 79, 1-Trimethylsilyl-2,3,3-trimethylcyclopropene]
[1]
  Gas @ 10 ppm: visual rating of protection against ethylene-induced epinasty: 10
